Two molecules from ChEMBL document CHEMBL5726951, “Small molecule inhibitors of the JAK family of kinases” (2019) can be followed below.

Assay [1] has as its target Tyrosine-protein kinase JAK2 (Homo sapiens, UniProt O60674). As to the kind of experiment: LC/MS grade water and acetonitrile (ACN), were purchased from HoneyWell, Burdick & Jackson (Muskegon, Mich., USA). […] The compounds were tested in duplicate. Column 12 was used for positive controls, and column 24 contained negative controls with no enzyme added. A compound from our internal collection, with inhibitory activity for JAK isoforms, was used as a reference compound. […] The enzyme reaction was initiated by the addition of 10 μL of enzyme and ATP mixture to 10 μL of substrate solution prepared in reaction buffer (50 mM MOPS pH 7.5, 10 mM MgCl2, 1 mM EDTA, 2 mM DTT, 0.002% Tween-20). The Tyk2 enzyme was pre-incubated with 2 mM ATP for 30 min prior to the reaction initiation. Immediately after the addition of the enzyme to the reaction mixture, the plate was centrifuged at 1000 rpm for 1 minute and incubated at 25° C. for 45 minutes for JAK3 and 90 minutes for JAK1, JAK2 and Tyk2. […] The plates then were transferred on to the RapidFire for the MS analysis. Compound inhibition was assessed by a decrease of the phosphorylated product levels in sample wells compared to the non-inhibited enzyme reaction.

Assay [2] deals with T1, Tyrosine-protein kinase JAK3 (Homo sapiens, UniProt P52333).
T1 sequence (P52333 whole entry): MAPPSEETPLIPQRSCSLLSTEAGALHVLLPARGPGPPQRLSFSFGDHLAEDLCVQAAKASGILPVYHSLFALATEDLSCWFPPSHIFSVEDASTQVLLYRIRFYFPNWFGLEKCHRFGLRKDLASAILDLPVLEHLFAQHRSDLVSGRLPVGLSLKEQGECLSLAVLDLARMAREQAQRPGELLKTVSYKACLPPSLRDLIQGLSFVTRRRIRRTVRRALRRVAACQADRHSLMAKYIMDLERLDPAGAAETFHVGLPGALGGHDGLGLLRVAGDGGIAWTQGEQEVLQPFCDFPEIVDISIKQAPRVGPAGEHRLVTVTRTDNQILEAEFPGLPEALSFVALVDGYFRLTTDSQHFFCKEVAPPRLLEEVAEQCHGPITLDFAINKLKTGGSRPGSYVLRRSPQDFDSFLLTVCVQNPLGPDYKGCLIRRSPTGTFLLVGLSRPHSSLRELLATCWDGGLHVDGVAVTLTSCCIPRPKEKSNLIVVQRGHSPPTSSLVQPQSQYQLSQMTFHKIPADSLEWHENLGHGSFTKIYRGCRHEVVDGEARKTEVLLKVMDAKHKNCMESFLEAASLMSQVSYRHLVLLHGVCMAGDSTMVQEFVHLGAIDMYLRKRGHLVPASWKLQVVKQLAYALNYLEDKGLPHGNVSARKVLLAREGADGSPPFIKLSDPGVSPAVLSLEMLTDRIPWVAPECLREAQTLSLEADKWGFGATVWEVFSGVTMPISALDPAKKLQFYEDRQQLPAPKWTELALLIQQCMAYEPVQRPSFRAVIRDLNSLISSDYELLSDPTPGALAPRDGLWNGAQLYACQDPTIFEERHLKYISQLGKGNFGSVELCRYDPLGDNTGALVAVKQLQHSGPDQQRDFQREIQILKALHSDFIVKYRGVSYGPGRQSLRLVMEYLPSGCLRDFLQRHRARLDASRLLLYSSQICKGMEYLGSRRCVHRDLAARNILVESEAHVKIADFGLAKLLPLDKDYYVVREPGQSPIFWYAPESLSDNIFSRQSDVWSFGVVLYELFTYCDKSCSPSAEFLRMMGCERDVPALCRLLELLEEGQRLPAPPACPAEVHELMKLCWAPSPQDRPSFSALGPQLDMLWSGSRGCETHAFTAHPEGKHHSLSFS
The experiment in a line: (§1) Enzymatic Inhibition Assay: Substrate (NH2-[…]-CO2), internal standard peptide (NH2-[…]-CO2) and product peptide (for standard curve only) (NH2-[…]-Pi-FELVKK-CO2), were purchased from AnaSpec (Fremont, Calif., USA). JAK1-JH1JH2 (574-1154 with a His-GST Tag and a C-terminal tev (ENLYFQ-G) cleavage site), JAK3-JH1JH2 (512-1124 with a GST Tag and a C-terminal tev (ENLYFQ-G) cleavage site), and Tyk2-JH1JH2 (8H_tev_580-1182-C936A-C1142A with a C-terminal tev (ENLYFQ-G) cleavage site) were purified internally. JAK2-JH1JH2 (532-1132 with a GST tag and C-terminal tev (ENLYFQ-G) cleavage site), was purchased from Invitrogen. LC/MS grade water and acetonitrile (ACN), were purchased from HoneyWell, Burdick & Jackson (Muskegon, Mich., USA). Dimethylsulfoxide 99.8% (DMSO) and trifluoroacetic acid 99.5% (TFA) were purchased from EMD Chemical (Gibbstown, N.J., USA). Adenosine triphosphate (ATP), 4-morpholinepropanesulfonic acid (MOPS), magnesium chloride (MgCl2), ethylenediaminetetraacetic acid (EDTA), dithiothreitol (DTT), formic acid>95% (FA) and Tween-20 were purchased from Sigma (St Louis, Mo., USA). 384-well polypropylene plates, Cat#781280 were purchased from Greiner (Monroe, N.C.), RapidFire™ cartridge A C4 Column (Agilent Technologies, Santa Clara, Calif.).The HTMS experiments were performed in positive ionization mode on a RapidFire 300 instrument (Agilent Technologies, Santa Clara, Calif.), coupled with an ABSiex QTrap 4000 system with an Electrospray Ionization source (RF-MS) (Concord, ON, Canada). The RapidFire system was run with 3 Agilent 1200 series isocratic pumps Agilent Technologies (Santa Clara, Calif.) and one peristaltic pump model ISM832C from Ismatec (Wertheim, Germany). The entire system was operated using the RapidFire software interfaced with Analyst software for the mass spectrometer.Assay Protocol11-point dosing series were made for each compound by serially diluting 1:3 or 1:4 in DMSO, with point 12 being a DMSO control. From the serial dilution plates, sample was transferred to a 384 wells assay plate (#781280, Greiner, Monroe, N.C.) using Labcyte Echo (Sunnyvale, Calif.), or Biosero ATS (San Diego, Calif.). The compounds were tested in duplicate. Column 12 was used for positive controls, and column 24 contained negative controls with no enzyme added. A compound from our internal collection, with inhibitory activity for JAK isoforms, was used as a reference compound. The final concentration of DMSO was ≤0.25% in a 20 μL reaction. The enzyme reaction was initiated by the addition of 10 μL of enzyme and ATP mixture to 10 μL of substrate solution prepared in reaction buffer (50 mM MOPS pH 7.5, 10 mM MgCl2, 1 mM EDTA, 2 mM DTT, 0.002% Tween-20). The Tyk2 enzyme was pre-incubated with 2 mM ATP for 30 min prior to the reaction initiation. Immediately after the addition of the enzyme to the reaction mixture, the plate was centrifuged at 1000 rpm for 1 minute and incubated at 25° C. for 45 minutes for JAK3 and 90 minutes for JAK1, JAK2 and Tyk2. The reaction was quenched by the addition of 20 μL of 0.5% TFA containing 0.15 μM of internal standard peptide using Multidrop Combi reagent dispenser (Thermo Scientific, Waltham, Mass.). Several wells in column 24 were typically used for the product standard curve. After the quench, the assay plate was centrifuged at 3000 rpm for 3 minutes and sealed with pierceable aluminum foil (Cat#06644-001, Agilent) using a PlateLoc (Agilent Technologies, Santa Clara, Calif.). The plates then were transferred on to the RapidFire for the MS analysis. Compound inhibition was assessed by a decrease of the phosphorylated product levels in sample wells compared to the non-inhibited enzyme reaction.

For assay [3], the target named is Non-receptor tyrosine-protein kinase TYK2 (Homo sapiens, UniProt P29597, C1142A/C936A). Described as §1.
The target of assay [4] is Tyrosine-protein kinase JAK1 (Homo sapiens, UniProt P23458). The description is as §1.

Each structure is given as a SMILES string.

Sequence of Non-receptor tyrosine-protein kinase TYK2 (P29597 whole entry C936A/C1142A): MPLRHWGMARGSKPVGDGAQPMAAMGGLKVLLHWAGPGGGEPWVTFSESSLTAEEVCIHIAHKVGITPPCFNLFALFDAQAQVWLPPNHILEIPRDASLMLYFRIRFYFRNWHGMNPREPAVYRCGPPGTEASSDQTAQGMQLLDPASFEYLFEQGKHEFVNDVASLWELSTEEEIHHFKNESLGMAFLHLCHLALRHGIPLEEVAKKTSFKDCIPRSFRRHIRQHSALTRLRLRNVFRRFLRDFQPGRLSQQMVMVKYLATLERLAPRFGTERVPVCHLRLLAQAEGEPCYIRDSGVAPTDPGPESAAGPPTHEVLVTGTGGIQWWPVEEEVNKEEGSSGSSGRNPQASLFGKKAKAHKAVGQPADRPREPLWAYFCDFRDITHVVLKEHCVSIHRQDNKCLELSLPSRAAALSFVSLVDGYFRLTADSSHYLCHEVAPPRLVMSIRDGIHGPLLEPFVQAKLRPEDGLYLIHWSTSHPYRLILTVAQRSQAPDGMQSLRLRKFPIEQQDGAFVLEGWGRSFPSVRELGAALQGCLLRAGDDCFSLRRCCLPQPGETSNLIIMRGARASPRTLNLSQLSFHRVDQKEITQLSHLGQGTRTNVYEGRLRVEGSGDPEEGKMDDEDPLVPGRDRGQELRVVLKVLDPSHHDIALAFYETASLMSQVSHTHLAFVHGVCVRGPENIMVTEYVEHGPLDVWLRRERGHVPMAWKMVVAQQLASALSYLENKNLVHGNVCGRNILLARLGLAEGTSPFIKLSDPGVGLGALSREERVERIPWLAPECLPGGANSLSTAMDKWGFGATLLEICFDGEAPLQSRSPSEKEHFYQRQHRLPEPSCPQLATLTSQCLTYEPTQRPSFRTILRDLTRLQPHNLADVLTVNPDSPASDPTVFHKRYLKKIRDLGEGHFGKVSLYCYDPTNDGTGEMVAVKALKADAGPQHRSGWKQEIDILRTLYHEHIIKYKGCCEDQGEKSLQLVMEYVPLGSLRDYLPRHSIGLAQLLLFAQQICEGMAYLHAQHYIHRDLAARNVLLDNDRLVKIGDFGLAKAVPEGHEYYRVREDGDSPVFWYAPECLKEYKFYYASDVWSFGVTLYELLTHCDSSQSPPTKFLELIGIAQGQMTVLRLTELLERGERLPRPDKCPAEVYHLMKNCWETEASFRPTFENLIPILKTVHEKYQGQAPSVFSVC
Sequence of Tyrosine-protein kinase JAK1 (P23458 whole entry): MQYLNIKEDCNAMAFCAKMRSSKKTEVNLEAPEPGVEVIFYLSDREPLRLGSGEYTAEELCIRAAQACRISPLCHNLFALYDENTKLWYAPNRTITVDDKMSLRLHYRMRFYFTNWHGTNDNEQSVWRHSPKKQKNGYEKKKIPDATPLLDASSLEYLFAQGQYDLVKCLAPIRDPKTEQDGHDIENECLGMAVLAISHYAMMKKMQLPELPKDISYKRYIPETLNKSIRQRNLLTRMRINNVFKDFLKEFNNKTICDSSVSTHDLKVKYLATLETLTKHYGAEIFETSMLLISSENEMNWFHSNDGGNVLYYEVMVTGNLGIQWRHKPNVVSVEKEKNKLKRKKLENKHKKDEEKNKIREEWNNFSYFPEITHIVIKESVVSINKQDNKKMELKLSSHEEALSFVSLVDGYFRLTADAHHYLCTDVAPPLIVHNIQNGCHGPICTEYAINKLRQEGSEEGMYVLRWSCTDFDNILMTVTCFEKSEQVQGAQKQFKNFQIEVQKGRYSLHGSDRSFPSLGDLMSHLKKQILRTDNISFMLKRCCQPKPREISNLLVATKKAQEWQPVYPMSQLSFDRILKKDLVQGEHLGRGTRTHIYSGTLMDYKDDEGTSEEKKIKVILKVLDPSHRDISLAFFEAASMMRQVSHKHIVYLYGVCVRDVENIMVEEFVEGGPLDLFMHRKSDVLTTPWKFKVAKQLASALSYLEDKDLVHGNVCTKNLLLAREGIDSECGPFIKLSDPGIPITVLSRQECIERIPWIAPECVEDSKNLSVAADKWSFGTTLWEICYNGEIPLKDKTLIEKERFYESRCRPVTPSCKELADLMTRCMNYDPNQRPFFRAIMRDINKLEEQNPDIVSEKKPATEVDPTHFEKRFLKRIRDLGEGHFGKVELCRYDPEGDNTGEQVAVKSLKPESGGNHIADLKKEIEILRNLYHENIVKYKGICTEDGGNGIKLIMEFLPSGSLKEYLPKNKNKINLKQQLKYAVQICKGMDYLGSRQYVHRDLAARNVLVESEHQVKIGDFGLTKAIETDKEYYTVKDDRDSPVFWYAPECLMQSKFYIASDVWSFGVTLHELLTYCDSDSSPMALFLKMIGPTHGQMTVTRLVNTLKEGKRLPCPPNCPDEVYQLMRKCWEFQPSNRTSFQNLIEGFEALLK
Sequence of Tyrosine-protein kinase JAK2 (O60674 whole entry, canonical isoform): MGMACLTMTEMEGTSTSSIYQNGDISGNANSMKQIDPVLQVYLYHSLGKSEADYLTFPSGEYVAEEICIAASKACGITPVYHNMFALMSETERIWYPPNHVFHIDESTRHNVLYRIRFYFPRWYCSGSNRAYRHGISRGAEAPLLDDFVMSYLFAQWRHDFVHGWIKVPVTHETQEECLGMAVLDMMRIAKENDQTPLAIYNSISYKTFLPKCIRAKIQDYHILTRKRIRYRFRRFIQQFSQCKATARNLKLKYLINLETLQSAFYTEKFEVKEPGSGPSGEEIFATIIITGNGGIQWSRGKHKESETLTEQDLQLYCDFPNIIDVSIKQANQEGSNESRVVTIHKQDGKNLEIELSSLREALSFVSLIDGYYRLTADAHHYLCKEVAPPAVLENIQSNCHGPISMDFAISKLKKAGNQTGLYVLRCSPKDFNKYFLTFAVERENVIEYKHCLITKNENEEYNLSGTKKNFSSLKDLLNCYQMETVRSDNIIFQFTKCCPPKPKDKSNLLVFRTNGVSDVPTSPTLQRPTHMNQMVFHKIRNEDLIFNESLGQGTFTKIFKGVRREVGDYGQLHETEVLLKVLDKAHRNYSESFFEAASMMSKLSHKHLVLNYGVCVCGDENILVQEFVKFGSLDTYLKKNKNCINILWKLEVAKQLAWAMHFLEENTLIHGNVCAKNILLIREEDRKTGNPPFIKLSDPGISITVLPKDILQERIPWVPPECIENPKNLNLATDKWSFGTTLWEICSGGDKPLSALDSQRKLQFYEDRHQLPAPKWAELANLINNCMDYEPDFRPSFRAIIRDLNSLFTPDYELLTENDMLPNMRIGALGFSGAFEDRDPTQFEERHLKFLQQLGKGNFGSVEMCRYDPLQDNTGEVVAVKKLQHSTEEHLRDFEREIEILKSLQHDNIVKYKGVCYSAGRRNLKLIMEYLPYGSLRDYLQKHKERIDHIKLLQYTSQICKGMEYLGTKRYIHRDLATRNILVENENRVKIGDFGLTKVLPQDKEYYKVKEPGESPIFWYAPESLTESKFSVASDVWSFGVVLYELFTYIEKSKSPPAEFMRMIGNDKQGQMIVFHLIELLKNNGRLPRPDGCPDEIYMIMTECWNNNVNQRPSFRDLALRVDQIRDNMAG

One may read the IC50 as the midpoint of a concentration-inhibition curve. In the case of `Cc1nc2cnc3[nH]ccc3c2n1[C@H]1CC[C@H](CC#N)CC1`, the IC50 was less than 0.2 nM in assay [1], 12.4 nM in assay [2], 0.9 nM in assay [3] and less than 0.2 nM in assay [4].
As to `N#CC[C@H]1CC[C@H](n2c(CO)nc3cnc4[nH]ccc4c32)CC1`, the IC50 was less than 0.2 nM in assay [1], 13.4 nM in assay [2], less than 0.2 nM in assay [3] and less than 0.2 nM in assay [4].
